Assay results reported in US20250275966A1, “GABAA RECEPTOR MODULATOR SALTS, PARTICLES, AND USES THEREOF” (Engrail Therapeutics, Inc., priority 2022, published 2025).
Counter-ions that a name gives are not always drawn.

How the values were obtained:
[1] = Oral non-human primate crossover PK study (Example 7); assay type: in vivo, cynomolgus monkeys; conditions: both micronized and non-micronized form; cynomolgus monkeys, single PO capsule
Description: An objective of this study is to determine the Pharmacokinetic (PK) profile of the Test Article following a single oral administration to four male non-human primate cynomolgus monkeys with one (1) week wash out periods.
Four male animals are used for this study, and the four study animals are used for each of three dosing phases with one-week washout periods. Food is withheld overnight prior to dose administration, and food is returned four hours post-dose administration. Water is provided ad libitum by automatic watering device. Two of the four animals are previously treated with Compound 1, and the other two are Compound 1 naive. Test Article (M-3, N-3, or K-13) are provided as capsulized powders; stored at room temperature protected from light in, for example, a polyolefin bottle.

[2] = Solid-state stability by HPLC and XRPD; assay type: physicochemical; conditions: after 4 weeks
Protocol: Solid-state stability of the fumarate salt of Compound 1 was assessed after storage at the following conditions for 2 and 4 weeks by HPLC and XRPD: 40° C./75% RH (opened); and 50° C./ambient RH (closed). […] Solid-state stability of Compound 1 and seven salts of Compound 1, as in Example 8, was assessed after storage at the following conditions for 2 and 4 weeks by HPLC and PXRD: 40° C./75% RH (opened); and 50° C./ambient RH (closed). HPLC for IDR and solid-state stability analyses were conducted with an Agilent 1260 Infinity system equipped with a G1311B Quad pump, […] Autosampler, G1330B auto-sampler thermostat, G1316A Thermostatted Column Compartment with a column switch valve, and […] diode array detector.

[3] = Intrinsic dissolution rate and solubility in 0.1 N HCl with 1% Tween 80 (USP <1087>); assay type: physicochemical; conditions: for Intrinsic Dissolution Rate IDR: paddle 100 rpm, die surface 0.5 cm^2
Protocol: The intrinsic dissolution rate was determined by forming compacted pellets of approximately 75 mg of API using a compression force of 1200 pounds of force, and each pellet (die surface area: 0.5 cm^2) was immersed into a flat bottom vessel containing 500 mL of medium (aqueous 0.1 N HCl with 1% Tween 80 (polyoxyethylene (20) sorbitan monooleate)), using a Distek 2100A dissolution bath, and Distek Circulator/heater (set to 37° C.), with a paddle speed of 100 rpm. An aliquot of the sample (1 mL) was pulled from dissolution media at 15, 30, 45, 60, 75, 90, 105, and 120 minutes, filtered, and analyzed by HPLC. The slope of the dissolution profile corresponded to an intrinsic dissolution rate of hemi-fumarate salt Form B of 6.2 μg/(min·cm^2) as compared to 8.9 μg/(min·cm^2) for Compound 1 (free base). Determination of intrinsic dissolution rate (IDR) was performed for Compound 1 and seven different salts of Compound 1 according to USP <1087> in 0.1 N hydrochloric acid with 1% Tween 80 (Polyoxyethylene […] sorbitan monooleate). Compacted pellets containing approximately 75 mg API were prepared using a compression force of 1200 pounds of force, and each pellet (die surface area: 0.5 cm^2) was immersed into a flat bottom vessel containing 500 mL of medium, using a Distek 2100A dissolution bath, and Distek Circulator/heater (set to 37° C.), with a paddle speed of 100 rpm. An aliquot of the sample (1 mL) was pulled from dissolution media at 15, 30, 45, 60, 75, 90, 105, and 120 minutes, filtered, and analyzed by HPLC. HPLC for IDR and solid-state stability analyses were conducted with an Agilent 1260 Infinity system equipped with a G1311B Quad pump, […] Autosampler, G1330B auto-sampler thermostat, G1316A Thermostatted Column Compartment with a column switch valve, and […] diode array detector.

[4] = Pharmacokinetic analysis of Compound 1 and its salts after oral capsule administration (Example 4); assay type: in vivo, cynomolgus monkeys; conditions: single PO capsule, 30 mg/kg
Protocol: A pharmacokinetic analysis was performed comparing administration of Compound 1 with certain salts of Compound 1 after oral (PO) administration in 3 male cynomolgus monkeys. The subjects received a single PO oral gavage of active pharmaceutical ingredient (API) (e.g., Compound 1 fumarate, Compound 1 sulfate, Compound 1 hydrochloride, Compound 1 phosphate, Compound 1 tosylate, Compound 1 malonate, Compound 1 maleate, or Compound 1 free base) in a capsule at a dose of 30 mg/kg. Following dose administration, the animals were flushed with approximately 10 milliliters of tap water to ensure all API was administered. Animals were observed twice daily and at sample collection time-points for any abnormal clinical and behavioral signs. Body weights were taken prior to dosing and weekly thereafter until study termination. Blood samples (0.5 mL) were collected pre-dose, 15 minutes, 30 minutes, and 1, 2, 4, 6, 8, 10, 12, and 24 hours post-dose. Each blood sample was collected from the monkey's femoral, saphenous or other available vein via direct venipuncture, placed into a polypropylene tube containing K2EDTA as the anticoagulant, and gently inverted several times to mix. The blood samples were kept on wet ice until centrifugation. Blood was centrifuged within 10 minutes of collection. The samples were centrifuged at a temperature of 4° C., at 3,000 g, for 5 minutes. The resulting plasma (˜0.25 mL) was divided into two equal aliquots (125 μL each) into polypropylene tubes, designated as Set A and Set B, after centrifugation. Plasma samples designated for certain metabolites (Set A) were treated with 12.5 μL of 2 M ascorbic acid (plasma: ascorbic acid=[…], v:v) prepared beforehand by combining 0.352 g of ascorbic acid into 1 mL of sterile water in a glass vial and mixing thoroughly. […] Once plasma was prepared, the samples were snap frozen on dry ice. All plasma samples were stored frozen below −70° C. until analyzed.

[5] = Gravimetric vapor sorption (GVS); assay type: physicochemical
Protocol: Selected physicochemical data of Form B were collected. Hemi-fumarate salt Form B was determined to be crystalline by polarized-light microscopy (PLM) and XRPD. […] (ΔH=1.7 J/g), followed immediately by a sharp endotherm at 199.6° C. […] (see FIG. 7). Proton NMR confirmed a hemi-salt with 0.5:1 CI:API ratio. […] No change in the XRPD pattern was observed post GVS.
GVS experiments were conducted on a Surface Measurement Systems DVS-Advantage. The experiments were performed at 25° C. The instrument was operated in step mode and the relative humidity was increased in 10% RH increments from 40% RH to 75% RH, then decreased from 75% RH to 5% RH, then increased a second time from 5% RH to 95% RH, then decreased from 95% RH to 5% RH. The mass equilibrium criterion was set at 0.003% change in mass over time (dm/dt). A minimum step time of 20 minutes and a maximum step time of 240 minutes were specified.

[6] = assay type: physicochemical
Protocol: A hemi-fumarate Form A (acetonitrile solvate) and hemi-fumarate Form B (non-solvated) of 3-(2,5-difluorophenyl)-7-[1,1-di(methyl-d3)ethyl-2,2,2-d3]-6-[(1-methyl-1H-1,2,4-triazol-5-yl)methoxy]-1,2,4-triazolo[4,3-b]pyridazine were prepared. A seed crystal for Form B was prepared by first combining 20.3 mg ([…]) 3-(2,5-difluorophenyl)-7-[1,1-di(methyl-d3)ethyl-2,2,2-d3]-6-[(1-methyl-1H-1,2,4-triazol-5-yl)methoxy]-1,2,4-triazolo[4,3-b]pyridazine with 1000 μL acetone. Fumaric acid/EtOH was added ([…], 1.0 eq) and the sample was continuously stirred while cycling the temperature between 40° C. and 5° C. (heating and cooling at 2° C./min. with 1 hour hold at 40° C. and 5° C.) for 48 hours. The samples were isolated at 5° C. and the suspension was equilibrated with stirring at 20° C. for 2 hours. Birefringent solids were harvested by filtration at room temperature and air-dried overnight. 3-(2,5-difluorophenyl)-7-[1,1-di(methyl-d3)ethyl-2,2,2-d3]-6-[(1-methyl-1H-1,2,4-triazol-5-yl)methoxy]-1,2,4-triazolo[4,3-b]pyridazine (5.51 mmol) was combined with acetone ([…], 16 vol). To the resulting solution (with minimal residual solids), fumaric acid (575 mg, 1.0 eq) was added, followed by seeding, e.g., with Form B (˜10 mg). […]

[7] = 0.1 N HCl with 1% Tween 80, 37° C., 500 mL, pellet about 75 mg
[8] = 3 male cynomolgus monkeys, plasma Compound 1

[2H]C([2H])([2H])C(c1cc2nnc(-c3cc(F)ccc3F)n2nc1OCc1ncnn1C)(C([2H])([2H])[2H])C([2H])([2H])[2H] [Fumarate Salt, 3-(2,5-difluorophenyl)-7-[1,1-di(methyl-d3)ethyl-2,2,2-d3]-6-[(1-methyl-1H-1,2,4-triazol-5-yl)methoxy]-1,2,4-triazolo[4,3-b]pyridazine]
exposure to Compound 1 as compared to subjects dosed with the free base [1]: superior exposure | Solid-state stability by HPLC or XRPD ([2]; 40° C./75% RH (opened) and 50° C./ambient RH (closed)): No significant changes | Solubility, time point 15 min [3, 7]: 0.342 µg/mL | Solubility, time point 30 min ([3]; 0.1 N HCl with 1% Tween 80, 37° C., 500 mL, pellet about 75 mg, 30 min): 0.404 µg/mL | Solubility, time point 45 min ([3]; 0.1 N HCl with 1% Tween 80, 37° C., 500 mL, pellet about 75 mg, 45 min): 0.46 µg/mL | Solubility, time point 60 min ([3]; 0.1 N HCl with 1% Tween 80, 37° C., 500 mL, pellet about 75 mg, 60 min): 0.576 µg/mL | Solubility, time point 75 min ([3]; 0.1 N HCl with 1% Tween 80, 37° C., 500 mL, pellet about 75 mg, 75 min): 0.684 µg/mL | Solubility, time point 90 min ([3]; 0.1 N HCl with 1% Tween 80, 37° C., 500 mL, pellet about 75 mg, 90 min): 0.79 µg/mL | Solubility, time point 105 min ([3]; 0.1 N HCl with 1% Tween 80, 37° C., 500 mL, pellet about 75 mg, 105 min): 0.87 µg/mL | Solubility, time point 120 min [3, 7]: 0.993 µg/mL | Intrinsic Dissolution Rate IDR ([3]; 0.1 N HCl with 1% Tween 80, 37° C.): 6.2 μg/(min · cm^2) | Intrinsic Dissolution Rate IDR ([3]; 0.1 N HCl with 1% Tween 80, 37° C., listed as hemi-fumarate salt Form B): 6.2 μg/(min · cm^2) | Solubility, Cumulative ([3]; sum of the 15-120 min time points, 0.1 N HCl with 1% Tween 80, 37° C.): 5.119 µg/mL | Cmax [4, 8]: 3080 ng/mL | Tmax [4, 8]: 4.7 h | Cmax ([4]; 3 male cynomolgus monkeys, plasma Compound 1, listed as fumarate salt of Compound 1, 30 mg/kg): about 3080 ng/mL | AUClast higher than that of Compound 1 ([4]; male cynomolgus monkeys): over 50% | Cmax higher than that of Compound 1 (free base) ([4]; male cynomolgus monkeys): over 98% | AUC(0-t) ([4]; male, cynomolgus monkey, plasma, po, male cynomolgus monkeys): 38900 ng·h/mL | XRPD pattern post GVS ([5]; after GVS): No change | moisture uptake (GVS) ([5]; between 5-95% RH, 25° C.): < 0.1 % wt

[2H]C([2H])([2H])C(c1cc2nnc(-c3cc(F)ccc3F)n2nc1OCc1ncnn1C)(C([2H])([2H])[2H])C([2H])([2H])[2H] [Form A, 3-(2,5-difluorophenyl)-7-[1,1-di(methyl-d3)ethyl-2,2,2-d3]-6-[(1-methyl-1H-1,2,4-triazol-5-yl)methoxy]-1,2,4-triazolo[4,3-b]pyridazine]
solid form stability at ambient conditions [6]: converted to Form B

[2H]C([2H])([2H])C(c1cc2nnc(-c3cc(F)ccc3F)n2nc1OCc1ncnn1C)(C([2H])([2H])[2H])C([2H])([2H])[2H] [Hydrochloride Salt, 3-(2,5-difluorophenyl)-7-[1,1-di(methyl-d3)ethyl-2,2,2-d3]-6-[(1-methyl-1H-1,2,4-triazol-5-yl)methoxy]-1,2,4-triazolo[4,3-b]pyridazine]
Solid-state stability, XRPD pattern ([2]; 40° C./75% RH): small signal at 10° 2θ of Compound 1 (free base) | Solubility, time point 15 min [3, 7]: 0.452 µg/mL | Solubility, time point 120 min [3, 7]: 1.13 µg/mL | Intrinsic Dissolution Rate IDR ([3]; 0.1 N HCl with 1% Tween 80, 37° C., listed as HCl Salt): 6.9 μg/(min · cm^2) | solubility at 30 min ([3]; 0.1 N HCl with 1% Tween 80, 37 °C, aqueous with cosolvent or surfactant or cyclodextrin, 500 mL, pellet about 75 mg, 30 min, read-out: Solubility, time point 30 min): 0.358 µg/mL | solubility at 45 min ([3]; 0.1 N HCl with 1% Tween 80, 37 °C, aqueous with cosolvent or surfactant or cyclodextrin, 500 mL, pellet about 75 mg, 45 min, read-out: Solubility, time point 45 min): 0.561 µg/mL | solubility at 60 min ([3]; 0.1 N HCl with 1% Tween 80, 37 °C, aqueous with cosolvent or surfactant or cyclodextrin, 500 mL, pellet about 75 mg, 60 min, read-out: Solubility, time point 60 min): 0.59 µg/mL | solubility at 75 min ([3]; 0.1 N HCl with 1% Tween 80, 37 °C, aqueous with cosolvent or surfactant or cyclodextrin, 500 mL, pellet about 75 mg, 75 min, read-out: Solubility, time point 75 min): 0.723 µg/mL | solubility at 90 min ([3]; 0.1 N HCl with 1% Tween 80, 37 °C, aqueous with cosolvent or surfactant or cyclodextrin, 500 mL, pellet about 75 mg, 90 min, read-out: Solubility, time point 90 min): 0.847 µg/mL | solubility at 105 min ([3]; 0.1 N HCl with 1% Tween 80, 37 °C, aqueous with cosolvent or surfactant or cyclodextrin, 500 mL, pellet about 75 mg, 105 min, read-out: Solubility, time point 105 min): 0.989 µg/mL | solubility ([3]; 0.1 N HCl with 1% Tween 80, 37 °C, aqueous with cosolvent or surfactant or cyclodextrin, sum of the 15-120 min time points, read-out: Solubility, Cumulative): 5.65 µg/mL | AUClast [4, 8]: 25402 ng·h/mL | Cmax [4, 8]: 1583 ng/mL | Tmax [4, 8]: 4.0 h
